Key:
Assay type in all cases: in vivo
[1] = system: Leptochloa chinensis; assay: Greenhouse herbicidal activity and crop safety comparison (Test Example 2)
How it was run: (§1)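 Fresh weight inhibition, banded into grades A to E (E <20%), was rated 14-21 days after foliar spraying of 3-6 leaf plants, or 14-30 days after a soil spray applied 24 h post-sowing.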

[2] = system: Oryza sativa subsp. japonica; assay: as above
How it was run: as §1

[3] = system: Echinochloa crusgalli; assay: as above
How it was run: as §1

[4] = system: Oryza sativa subsp. indica; assay: as above
How it was run: as §1

[5] = system: Leptochloa chinensis; assay: Greenhouse herbicidal activity assay, post-emergence; settings: Post-emergence test, rate 150 g a.i./hm^2, grade by fresh weight inhibition rate
How it was run: (§2)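 Graded A (≥80%) to E (<20%) by fresh weight inhibition, read 14-21 days after spraying. Plants were pot-grown in a growth chamber and received foliar application at the 3-6 leaf stage, being air-dried and returned to the chamber afterwards.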

[6] = system: Eclipta prostrata; assay: as above; settings: Post-emergence test, rate 150 g a.i./hm^2, grade by fresh weight inhibition rate
How it was run: as §2

[7] = system: Cyperus iria; assay: as above; settings: Post-emergence test, rate 150 g a.i./hm^2, grade by fresh weight inhibition rate
How it was run: as §2

[8] = system: Digitaria sanguinalis; assay: as above; settings: Post-emergence test, rate 150 g a.i./hm^2, grade by fresh weight inhibition rate
How it was run: as §2

[9] = system: Echinochloa crusgalli; assay: as above; settings: Post-emergence test, rate 150 g a.i./hm^2, grade by fresh weight inhibition rate
How it was run: as §2

| Compound | Leptochloa chinensis, control efficacy grading (fresh weight inhibition rate) ([1]; Rate 250 g/ha) | Oryza sativa subsp. japonica, grading of fresh weight inhibition rate (crop safety) ([2]; Rate 250 g/ha) | Echinochloa crusgalli, control efficacy grading (fresh weight inhibition rate) ([3]; Rate 250 g/ha) | Oryza sativa subsp. indica, grading of fresh weight inhibition rate (crop safety) ([4]; Rate 250 g/ha) | Control efficacy grade, Leptochloa chinensis [5] | Control efficacy grade, Eclipta prostrata [6] | Control efficacy grade, Cyperus iria [7] | Control efficacy grade, Digitaria sanguinalis [8] | Control efficacy grade, Echinochloa crusgalli [9] | Leptochloa chinensis, control efficacy grading (fresh weight inhibition rate) ([1]; Rate 150 g/ha) | Oryza sativa subsp. japonica, grading of fresh weight inhibition rate (crop safety) ([2]; Rate 150 g/ha) | Echinochloa crusgalli, control efficacy grading (fresh weight inhibition rate) ([3]; Rate 150 g/ha) | Oryza sativa subsp. indica, grading of fresh weight inhibition rate (crop safety) ([4]; Rate 150 g/ha) | inhibition at 150 g/ha ([1]; Dinebra chinensis, Rate 150 g/ha, read-out: Leptochloa chinensis, control efficacy grading (fresh weight inhibition rate)) [%] | inhibition at 150 g/ha ([3]; Echinochloa crus-galli, Rate 150 g/ha, read-out: Echinochloa crusgalli, control efficacy grading (fresh weight inhibition rate)) [%] | pest or weed control at 150 g/ha ([5]; Dinebra chinensis, read-out: Control efficacy grade, Leptochloa chinensis) [%] | pest or weed control at 150 g/ha ([6]; Eclipta prostrata, read-out: Control efficacy grade, Eclipta prostrata) [%] | pest or weed control at 150 g/ha ([7]; Cyperus iria, read-out: Control efficacy grade, Cyperus iria) [%] | pest or weed control at 150 g/ha ([8]; Digitaria sanguinalis, read-out: Control efficacy grade, Digitaria sanguinalis) [%] | pest or weed control at 150 g/ha ([9]; Echinochloa crus-galli, read-out: Control efficacy grade, Echinochloa crusgalli) [%] |
| --- | --- | --- | --- | --- | --- | --- | --- | --- | --- | --- | --- | --- | --- | --- | --- | --- | --- | --- | --- | --- |
| Cc1nnc(NC(=O)c2ccc(S(C)(=O)=O)c(S(=O)(=O)CC(C)C)c2Cl)o1 [Compound 3-31] | A (Fresh weight inhibition rate≥80% to 100%) | E (Fresh weight inhibition rate<20%) | A (Fresh weight inhibition rate≥80% to 100%) | E (Fresh weight inhibition rate<20%) | A (Fresh weight inhibition rate≥80% to 100%) | A (Fresh weight inhibition rate≥80% to 100%) | A (Fresh weight inhibition rate≥80% to 100%) | A (Fresh weight inhibition rate≥80% to 100%) | B (Fresh weight inhibition rate≥260% to <80%) | – | – | – | – | – | – | – | – | – | – | – |
| Cc1nnc(NC(=O)c2ccc(S(C)(=O)=O)c(S(=O)(=O)CC3CC3)c2Cl)o1 [Compound 3-41] | – | – | – | – | A (Fresh weight inhibition rate≥80% to 100%) | A (Fresh weight inhibition rate≥80% to 100%) | A (Fresh weight inhibition rate≥80% to 100%) | A (Fresh weight inhibition rate≥80% to 100%) | A (Fresh weight inhibition rate≥80% to 100%) | A (Fresh weight inhibition rate≥80% to 100%) | E (Fresh weight inhibition rate<20%) | A (Fresh weight inhibition rate≥80% to 100%) | E (Fresh weight inhibition rate<20%) | – | – | – | – | – | – | – |
| Cc1nnc(NC(=O)c2ccc(S(C)(=O)=O)c(S(=O)(=O)C3CC3)c2Cl)o1 [Compound 3-81] | – | – | – | – | A (Fresh weight inhibition rate≥80% to 100%) | A (Fresh weight inhibition rate≥80% to 100%) | A (Fresh weight inhibition rate≥80% to 100%) | A (Fresh weight inhibition rate≥80% to 100%) | A (Fresh weight inhibition rate≥80% to 100%) | A (Fresh weight inhibition rate≥80% to 100%) | E (Fresh weight inhibition rate<20%) | A (Fresh weight inhibition rate≥80% to 100%) | E (Fresh weight inhibition rate<20%) | – | – | – | – | – | – | – |
| Cc1nnc(NC(=O)c2ccc(S(C)(=O)=O)c(S(=O)(=O)C3CCC3)c2Cl)o1 [Compound 3-86] | – | – | – | – | A (Fresh weight inhibition rate≥80% to 100%) | A (Fresh weight inhibition rate≥80% to 100%) | A (Fresh weight inhibition rate≥80% to 100%) | A (Fresh weight inhibition rate≥80% to 100%) | A (Fresh weight inhibition rate≥80% to 100%) | A (Fresh weight inhibition rate≥80% to 100%) | E (Fresh weight inhibition rate<20%) | A (Fresh weight inhibition rate≥80% to 100%) | E (Fresh weight inhibition rate<20%) | – | – | – | – | – | – | – |
| Cc1nnc(NC(=O)c2ccc(S(C)(=O)=O)c(S(=O)(=O)C3CCCC3)c2Cl)o1 [Compound 3-91] | – | – | – | – | A (Fresh weight inhibition rate≥80% to 100%) | A (Fresh weight inhibition rate≥80% to 100%) | A (Fresh weight inhibition rate≥80% to 100%) | A (Fresh weight inhibition rate≥80% to 100%) | A (Fresh weight inhibition rate≥80% to 100%) | A (Fresh weight inhibition rate≥80% to 100%) | E (Fresh weight inhibition rate<20%) | A (Fresh weight inhibition rate≥80% to 100%) | E (Fresh weight inhibition rate<20%) | – | – | – | – | – | – | – |
| Cc1nnc(NC(=O)c2ccc(S(C)(=O)=O)c(S(=O)(=O)CC(F)(F)F)c2Cl)o1 [Compound 3-101] | – | – | – | – | A (Fresh weight inhibition rate≥80% to 100%) | A (Fresh weight inhibition rate≥80% to 100%) | A (Fresh weight inhibition rate≥80% to 100%) | A (Fresh weight inhibition rate≥80% to 100%) | A (Fresh weight inhibition rate≥80% to 100%) | A (Fresh weight inhibition rate≥80% to 100%) | E (Fresh weight inhibition rate<20%) | A (Fresh weight inhibition rate≥80% to 100%) | E (Fresh weight inhibition rate<20%) | – | – | – | – | – | – | – |
| C=CCS(=O)(=O)c1c(S(C)(=O)=O)ccc(C(=O)Nc2nnc(C)o2)c1Cl [Compound 3-116] | – | – | – | – | A (Fresh weight inhibition rate≥80% to 100%) | A (Fresh weight inhibition rate≥80% to 100%) | C (Fresh weight inhibition rate≥40% to <60%) | A (Fresh weight inhibition rate≥80% to 100%) | A (Fresh weight inhibition rate≥80% to 100%) | A (Fresh weight inhibition rate≥80% to 100%) | E (Fresh weight inhibition rate<20%) | A (Fresh weight inhibition rate≥80% to 100%) | E (Fresh weight inhibition rate<20%) | – | – | – | – | – | – | – |
| CCCS(=O)(=O)c1c(S(C)(=O)=O)ccc(C(=O)Nc2nnco2)c1Cl [Compound 3-271, 2-chloro-4-(methylsulfonyl)-N-(1,3,4-oxadiazol-2-yl)-3-(propylsulfonyl)benzamide] | – | – | – | – | – | – | – | – | – | – | E (Fresh weight inhibition rate<20%) | – | E (Fresh weight inhibition rate<20%) | 80 to 100 | 80 to 100 | 80 to 100 | 80 to 100 | 80 to 100 | 80 to 100 | 80 to 100 |
| CC(C)S(=O)(=O)c1c(S(C)(=O)=O)ccc(C(=O)Nc2nnco2)c1Cl [Compound 3-276] | – | – | – | – | A (Fresh weight inhibition rate≥80% to 100%) | A (Fresh weight inhibition rate≥80% to 100%) | A (Fresh weight inhibition rate≥80% to 100%) | A (Fresh weight inhibition rate≥80% to 100%) | A (Fresh weight inhibition rate≥80% to 100%) | A (Fresh weight inhibition rate≥80% to 100%) | E (Fresh weight inhibition rate<20%) | A (Fresh weight inhibition rate≥80% to 100%) | E (Fresh weight inhibition rate<20%) | – | – | – | – | – | – | – |

Reference: patent US20250223268A1, “4-Methylsulfonylbenzamide Compound, Preparation Method, Herbicidal Composition And Use” (Jiangsu Flag Chemical Industry Co., Ltd., priority 2022, published 2025)
